Experimental data published in patent EP0551434B1 (BOARD OF REGENTS THE UNIVERSITY OF TEXAS SYSTEM, priority 1990, dated 1992).
Like-named read-outs stand apart in the source and are kept apart here.

Key:
estrogen receptor [1] = biological target: T1, estrogen receptor (Sus scrofa, UniProt Q29040); assay: biochemical
T1 sequence (Q29040 1-595): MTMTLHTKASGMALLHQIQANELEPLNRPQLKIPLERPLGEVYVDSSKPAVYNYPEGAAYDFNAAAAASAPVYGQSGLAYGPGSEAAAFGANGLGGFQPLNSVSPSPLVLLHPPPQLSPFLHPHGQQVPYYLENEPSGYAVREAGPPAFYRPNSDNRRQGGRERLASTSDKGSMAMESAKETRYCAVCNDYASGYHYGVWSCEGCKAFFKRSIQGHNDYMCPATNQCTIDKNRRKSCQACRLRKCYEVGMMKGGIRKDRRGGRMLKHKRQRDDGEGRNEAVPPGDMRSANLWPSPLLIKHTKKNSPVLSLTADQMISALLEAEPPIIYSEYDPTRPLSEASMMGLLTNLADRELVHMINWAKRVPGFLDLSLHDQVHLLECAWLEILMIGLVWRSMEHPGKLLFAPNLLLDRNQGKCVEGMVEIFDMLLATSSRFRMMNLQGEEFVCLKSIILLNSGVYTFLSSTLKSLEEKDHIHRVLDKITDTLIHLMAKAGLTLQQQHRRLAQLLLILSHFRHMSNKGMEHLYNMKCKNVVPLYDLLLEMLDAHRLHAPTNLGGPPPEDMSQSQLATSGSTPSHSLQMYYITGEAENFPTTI
Procedure: (§1) Briefly, uteri (90 gm) were obtained from immature domestic swine (15kg) was homogenized in Tris buffer (10 mM, pH 7.4) (1 uterus/180 ml), which contained EDTA (1.5 mM) and sodium Azide (3 mM). The homogenate was centrifuged at 100,000 g for 1 hour at 4 ° C. Uteri cytosol (contains 2% of protein from corresponding uterus tissue) were then pretreated with dextran-coated charcoal as described.^10 Protein concentrations were determined according to the method of Lowry et al.^12

MCF7 = assay: Inhibition of MCF7 breast tumor cell growth in vitro (72 hour exposure, MTT tetrazolium dye assay); type: cell-based, human; settings: for IC50: average of three experiments, read-out: IC50 Dose
Procedure: The MCF7 cell line is a human tumor cell line. This cell line was cultured in MEM( (Eagles) media in a 5% C0^2 atmosphere with 10% fetal calf serum that had been washed twice with dextran coated charcoal to reduce endogenous estrogen levels. The media was supplemented with 1 mM sodium pyruvate and 100 µm non-essential amino acids. The cell line was screened routinely for myoplasma contamination using the GenProbe kit (Fisher). Cells were trypsinized and plated at a density of 5,000 cells/well in 96 well microtiter plates and allowed to attach and recover for 24 hours.
The media was removed by aspiration and replaced with filter sterilized drug (concentration from 10-^4 M to […]) in media. The cells were incubated for 72 hours and then stained using the MTT tetrazolium dye assay of Mosmann^36 except that after the media was removed, the blue formazan product was solubilized in 50 µl/well DMSO.

estrogen receptor [2] = biological target: T1, estrogen receptor
Procedure: as §1

[3] = In vivo biodistribution of N,N-diethyl-[^18F]fluoromethyltamoxifen in rats; settings: rat, iv; for tissue uptake at 2 h / tissue uptake at 4 h: primed with 60 μg of estradiol for 3 days
Procedure: Four groups of rats (150-200 gm, N = 4/group) were anesthetized with ketamine (10-15 mg/rat). […]. Tissue uptake of ^18F-tracer was determined at 2 and 4 hours (h). To ascertain whether the ^18 F-tracer uptake was mediated by a receptor-process, one group of rats was given ^18F-tracer without priming with estradiol; and another group of rats was given unlabeled estradiol (30 µg/rat) together with ^18 F-tracer. […]

[4] = In vivo tissue uptake of ^131I-IMTX (trans) in rat
[5] = IC-50 estrogen receptor binding, [^3H]estradiol (5 nM)
[6] = Table 6, relative potency, IC50 ratio between tamoxifen and competitor, tamoxifen = 100
[7] = IC50(uM), concentration required to decrease bound [^3H]estradiol by 50%, average of three experiments
[8] = comparative compounds IV and VII
[9] = comparative compounds IV and VII, relative potency, tamoxifen = 100
[10] = 2h(BLOCK): coinjected with estradiol (30μg)
[11] = 2h, without prime with estradiol (control)

CCN(CC)CCOc1ccc(/C(=C(/CCCCl)c2ccccc2)c2ccccc2)cc1 [Compound XII, 1[4-(2-Diethylaminoethoxy)phenyl]-1,2-diphenyl-5-chloro-1-pentene]
IC50 (estrogen receptor [1]; [5]): 0.4 µM

CCN(CC)CCOc1ccc(/C(=C(\CCCCl)c2ccccc2)c2ccccc2)cc1 [Compound XII (Cis), 1[4-(2-Diethylaminoethoxy)phenyl]-1,2-diphenyl-5-chloro-1-pentene]
RP (MCF7; [6]): 335
RBA (estrogen receptor [2]): 7.5
IC50 (estrogen receptor [1]; [7]): 4 µM
IC50 (estrogen receptor [1]; [5]): 4 µM

CCN(CC)CCOc1ccc(C(=C(CCF)c2ccccc2)c2ccccc2)cc1 (single isomer, unassigned) [Compound IV (Cis), N,N-diethyl-fluorotamoxifen]
RP (MCF7): 268

CCN(CC)CCOc1ccc(/C(=C(\CCCO)c2ccccc2)c2ccccc2)cc1 [III (Cis), N,N-diethyl-hydroxymethyltamoxifen]
IC50 (MCF7; Homo sapiens, MCF7, 72 h, Table 6, 72 hour exposure): 16.7 µM
RP (MCF7; [6]): 66
RBA (estrogen receptor [2]): 3
RBA* (estrogen receptor [2]): 300
Ki (estrogen receptor [1]): 5 µM
IC50 (estrogen receptor [1]; IC50(M), [^3H]estradiol 5 nM, 4°C): 10 µM
IC50 (estrogen receptor [1]; [7]): 10 µM
IC50 (estrogen receptor [1]; [5]): 10 µM

CCN(CC)CCOc1ccc(C(=C(CCCBr)c2ccccc2)c2ccccc2)cc1 [Compound XI, 1-[4-(2-Diethylaminoethoxy)phenyl]-1,2-diphenyl-5-bromo-1-entene]
IC50 (estrogen receptor [1]; IC-50, text value, Example 5): 0.2 µM
IC50 (estrogen receptor [1]; [5]): 0.2 µM

Fluorotamoxifen [Compound VII (Trans)]
IC50 (MCF7; [8]): 11.8 µM
RP (MCF7; [9]): 93

CCN(CC)CCOc1ccc(C(=C(CCC[18F])c2ccccc2)c2ccccc2)cc1 [N,N-DIETHYL-[^18F]FLUOROMETHYLTAMOXIFEN]
tissue uptake at 2 h ([3]; blood, 2h, read-out: BLOOD): 0.033 ± 0.0059 %ID/g
tissue uptake at 4 h ([3]; blood, read-out: BLOOD): 0.045 ± 0.0003 %ID/g
tissue uptake at 2 h ([3]; bone, 2h, read-out: BONE): 0.653 ± 0.135 %ID/g
tissue uptake at 4 h ([3]; bone, read-out: BONE): 0.802 ± 0.0556 %ID/g
tissue uptake at 2 h ([3]; intestine, 2h, read-out: INTESTINE): 0.917 ± 0.306 %ID/g
tissue uptake at 4 h ([3]; intestine, read-out: INTESTINE): 1.1 ± 0.599 %ID/g
tissue uptake at 2 h ([3]; kidney, 2h, read-out: KIDNEY): 0.742 ± 0.0756 %ID/g
tissue uptake at 4 h ([3]; kidney, read-out: KIDNEY): 0.796 ± 0.03 %ID/g
tissue uptake at 2 h ([3]; liver, 2h, read-out: LIVER): 4.54 ± 0.505 %ID/g
tissue uptake at 4 h ([3]; liver, read-out: LIVER): 4.21 ± 0.44 %ID/g
tissue uptake at 2 h ([3]; muscle, 2h, read-out: MUSCLE): 0.151 ± 0.0203 %ID/g
tissue uptake at 4 h ([3]; muscle, read-out: MUSCLE): 0.183 ± 0.0015 %ID/g
BLOOD [3, 10]: 0.048±0.0066 % OF INJECTED DOSE/GRAM OF TISSUE WEIGHT
BONE [3, 10]: 0.576±0.1268 % OF INJECTED DOSE/GRAM OF TISSUE WEIGHT
INTESTINE [3, 10]: 0.742±0.458 % OF INJECTED DOSE/GRAM OF TISSUE WEIGHT
KIDNEY [3, 10]: 0.742±0.1451 % OF INJECTED DOSE/GRAM OF TISSUE WEIGHT
LIVER [3, 10]: 4.451±1.1559 % OF INJECTED DOSE/GRAM OF TISSUE WEIGHT
MUSCLE [3, 10]: 0.145±0.0446 % OF INJECTED DOSE/GRAM OF TISSUE WEIGHT
UTERUS [3, 10]: 0.297±0.0356 % OF INJECTED DOSE/GRAM OF TISSUE WEIGHT
BLOOD [3, 11]: 0.033±0.0109 % OF INJECTED DOSE/GRAM OF TISSUE WEIGHT
BONE [3, 11]: 0.644±0.0656 % OF INJECTED DOSE/GRAM OF TISSUE WEIGHT
INTESTINE [3, 11]: 0.504±0.1784 % OF INJECTED DOSE/GRAM OF TISSUE WEIGHT
KIDNEY [3, 11]: 0.530±0.0752 % OF INJECTED DOSE/GRAM OF TISSUE WEIGHT
LIVER [3, 11]: 3.849±0.4069 % OF INJECTED DOSE/GRAM OF TISSUE WEIGHT
MUSCLE [3, 11]: 0.109±0.0218 % OF INJECTED DOSE/GRAM OF TISSUE WEIGHT
UTERUS [3, 11]: 0.248±0.0535 % OF INJECTED DOSE/GRAM OF TISSUE WEIGHT
tissue uptake at 2 h ([3]; uterus, 2h, read-out: UTERUS): 0.426 ± 0.0177 %ID/g
tissue uptake at 4 h ([3]; uterus, read-out: UTERUS): 0.4 ± 0.0312 %ID/g

CCN(CC)CCOc1ccc(C(=C(CCC[131I])c2ccccc2)c2ccccc2)cc1 (single isomer, unassigned) [^131 I-IMTX (trans)]
Uterus/blood ratio ([4]; 3h): 1.6
Uterus/blood ratio ([4]; 6h): 1.5
Uterus/blood ratio ([4]; 24h): 1.2
tissue uptake liver ([4]; n=5, 3h): 5.3 ± 0.84 % injected dose per organ
tissue uptake uterus ([4]; n=5, 3h): 0.5 ± 0.04 % injected dose per organ
tissue uptake liver ([4]; n=5, 6h): 3.0 ± 0.02 % injected dose per organ
tissue uptake liver ([4]; n=5, 24h): 1.7 ± 0.21 % injected dose per organ
tissue uptake uterus ([4]; n=5, 24h): 0.01 ± 0.001 % injected dose per organ

Fluorotamoxifen [Compound VII (Cis)]
IC50 (MCF7; [8]): 4.5 µM
RP (MCF7; [9]): 224
